Article PMC5518475 (Bioorganic & medicinal chemistry letters, 2017)
One block for each compound: values may come before it.

What was measured:
human P-gp = human P-gp (Homo sapiens, UniProt P08183); assay: P-gp efflux in MDCK-MDR1 cells; type: in vitro ADME
Dog in vivo PK = settings: female, mongrel, plasma, iv
human M4 = molecular target: T1, human M4 (Homo sapiens, UniProt P08173); assay: ACh CRC fold-shift experiments; type: cell-based; settings: operational model
T1 sequence (P08173 1-479): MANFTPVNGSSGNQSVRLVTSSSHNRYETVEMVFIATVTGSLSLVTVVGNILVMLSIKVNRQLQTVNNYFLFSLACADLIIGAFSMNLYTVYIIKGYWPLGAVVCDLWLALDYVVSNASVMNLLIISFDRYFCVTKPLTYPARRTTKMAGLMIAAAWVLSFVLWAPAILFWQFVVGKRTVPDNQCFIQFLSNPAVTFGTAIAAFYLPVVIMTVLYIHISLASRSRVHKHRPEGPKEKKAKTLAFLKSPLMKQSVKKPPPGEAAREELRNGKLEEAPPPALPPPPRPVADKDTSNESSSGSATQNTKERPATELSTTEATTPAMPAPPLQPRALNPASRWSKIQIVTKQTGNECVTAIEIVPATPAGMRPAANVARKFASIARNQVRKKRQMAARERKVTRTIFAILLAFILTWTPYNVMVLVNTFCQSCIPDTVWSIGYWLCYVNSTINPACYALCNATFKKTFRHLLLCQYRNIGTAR

CYP450 = CYP450 time-dependent inhibition; type: in vitro ADME
Predicted human PK = settings: based on moderate and small predicted CL and Vss
cynomolgus monkey M4 = cynomolgus monkey M4 (Macaca fascicularis, UniProt G7PQB4); assay: ACh CRC fold-shift experiments; type: cell-based; settings: operational model
Rat in vivo PK = settings: rat in vivo PK studies
hM4 = molecular target: T2, hM4 (Homo sapiens, UniProt P08173); type: cell-based; settings: for hM4 pEC50 (±SEM): hM4/Gqi5-CHO cells, EC20 fixed concentration of acetylcholine, mean of n=3
T2 sequence (P08173 1-479): T1 sequence (P08173 1-479)

[1] = Predicted hepatic clearance from rat hepatic microsomal CLint; type: in vitro ADME; settings: based on hepatic microsomal CLint
[2] = Predicted hepatic clearance from human hepatic microsomal CLint; type: in vitro ADME; settings: based on hepatic microsomal CLint

Chain of human P-gp (P08183 whole entry): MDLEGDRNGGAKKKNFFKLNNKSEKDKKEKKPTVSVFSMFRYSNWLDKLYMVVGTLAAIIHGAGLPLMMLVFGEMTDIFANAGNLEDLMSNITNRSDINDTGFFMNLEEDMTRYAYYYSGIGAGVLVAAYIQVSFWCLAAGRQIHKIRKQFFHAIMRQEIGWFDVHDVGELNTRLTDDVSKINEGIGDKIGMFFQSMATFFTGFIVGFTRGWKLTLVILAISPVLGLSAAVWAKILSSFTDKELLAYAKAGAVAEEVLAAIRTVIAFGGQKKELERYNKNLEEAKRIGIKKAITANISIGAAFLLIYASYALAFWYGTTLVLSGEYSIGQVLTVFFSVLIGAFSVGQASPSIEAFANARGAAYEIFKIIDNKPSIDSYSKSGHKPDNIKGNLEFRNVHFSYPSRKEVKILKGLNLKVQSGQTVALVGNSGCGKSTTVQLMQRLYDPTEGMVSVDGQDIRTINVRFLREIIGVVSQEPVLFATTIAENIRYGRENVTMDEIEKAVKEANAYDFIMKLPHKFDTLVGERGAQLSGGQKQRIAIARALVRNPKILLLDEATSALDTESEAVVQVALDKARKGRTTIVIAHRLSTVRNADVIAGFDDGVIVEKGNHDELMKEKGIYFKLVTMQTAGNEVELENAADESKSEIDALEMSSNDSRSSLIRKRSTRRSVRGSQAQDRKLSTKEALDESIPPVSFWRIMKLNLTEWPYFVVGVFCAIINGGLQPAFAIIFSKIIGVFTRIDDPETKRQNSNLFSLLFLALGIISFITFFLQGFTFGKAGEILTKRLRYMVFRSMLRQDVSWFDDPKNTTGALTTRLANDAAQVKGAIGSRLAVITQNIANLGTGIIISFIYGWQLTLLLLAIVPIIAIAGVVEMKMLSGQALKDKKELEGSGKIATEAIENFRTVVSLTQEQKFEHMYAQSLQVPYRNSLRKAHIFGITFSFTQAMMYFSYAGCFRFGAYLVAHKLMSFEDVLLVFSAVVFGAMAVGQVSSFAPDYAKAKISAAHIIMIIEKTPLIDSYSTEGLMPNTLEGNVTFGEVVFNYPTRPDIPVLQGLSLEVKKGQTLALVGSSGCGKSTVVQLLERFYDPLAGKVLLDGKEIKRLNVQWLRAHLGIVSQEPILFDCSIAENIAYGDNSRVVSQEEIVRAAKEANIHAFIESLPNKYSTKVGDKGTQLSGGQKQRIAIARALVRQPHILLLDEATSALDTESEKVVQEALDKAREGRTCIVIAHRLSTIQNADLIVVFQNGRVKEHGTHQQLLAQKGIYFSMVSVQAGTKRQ

Structure (SMILES): Cc1nnc2sc(C(=O)NC3CN(c4cccc(F)c4F)C3)c(N)c2c1C [Compound 17j]
- clearance (Dog in vivo PK): 1.02 L/h/kg
- human M4 αβ (human M4): 380
- Ames test result (Ames test): no evidence of mutagenesis
- time-dependent CYP450 inhibition (CYP450): no evidence for time-dependent inhibition
- predicted human t1/2 (Predicted human PK): 1 to 2 h
- cynomolgus monkey M4 αβ (cynomolgus monkey M4): 120

Structure (SMILES): COc1cc(N2CC(NC(=O)c3sc4nnc(C)c(C)c4c3N)C2)ccn1 [Compound 16o]
- rat in vivo PK finding on metabolism (Rat in vivo PK): evidence for extrahepatic non-CYP450 metabolism

Structure (SMILES): Cc1nnc2sc(C(=O)NC3CN(C(=O)c4ccccc4)C3)c(N)c2c1C [Compound 6f]
- hM4 pEC50 (±SEM) (hM4): 6.22±0.25

Structure (SMILES): Cc1nnc2sc(C(=O)NC3CN(c4nc5ccccc5o4)C3)c(N)c2c1C [Compound 16b]
- hM4 pEC50 (±SEM) (hM4): 6.45±0.19

Structure (SMILES): Cc1nnc2sc(C(=O)NC3CN(c4ccc(F)cc4F)C3)c(N)c2c1C [Compound 17h]
- hM4 pEC50 (±SEM) (hM4): 7.49±0.12

Structure (SMILES): Cc1nnc2sc(C(=O)NC3CN(c4ccc(S(=O)(=O)C(F)(F)F)cc4)C3)c(N)c2c1C [Compound 17f]
- weaker hM4 activity compared to that of 17j (hM4): ~ 10 fold

Structure (SMILES): Cc1nnc2sc(C(=O)NC3CN(C(=O)OCc4ccccc4)C3)c(N)c2c1C [Compound 6a]
- hM4 pEC50 (±SEM) (hM4): 7.62±0.19

Structure (SMILES): Cc1nnc2sc(C(=O)NC3CN(c4ccc(S(=O)(=O)C(F)F)cc4)C3)c(N)c2c1C [Compound 17g]
- weaker hM4 activity compared to that of 17j (hM4): ~40 fold
- hM4 pEC50 (±SEM) (hM4): 6.63±0.29

Structure (SMILES): Cc1cccc(OC(=O)N2CC(NC(=O)c3sc4nnc(C)c(C)c4c3N)C2)c1 [Compound 6c]
- hM4 pEC50 (±SEM) (hM4): 7.23±0.17

Structure (SMILES): Cc1nnc2sc(C(=O)NC3CN(c4cc(F)nc(F)c4)C3)c(N)c2c1C [Compound 16q]
- human P-gp efflux substrate (human P-gp): substrates for human P-gp efflux

Structure (SMILES): Cc1nnc2sc(C(=O)NC3CN(c4ccncc4Cl)C3)c(N)c2c1C [Compound 16p]
- rat in vivo PK finding on metabolism (Rat in vivo PK): evidence for extrahepatic non-CYP450 metabolism

Other lines, results leading:

- human P-gp efflux substrate (human P-gp): substrates for human P-gp efflux
Structure (SMILES): Cc1nnc2sc(C(=O)NC3CN(c4cccnc4)C3)c(N)c2c1C [Compound 16e]

- hM4 pEC50 (±SEM) (hM4): 7.04±0.16
- predicted CLhep [1]: 2.46 L/h/kg
- predicted CLhep [2]: 0.72 L/h/kg
Structure (SMILES): Cc1nnc2sc(C(=O)NC3CN(c4nc5cccnc5s4)C3)c(N)c2c1C [Compound 16c]

- hM4 pEC50 (±SEM) (hM4): 6.99±0.18
Structure (SMILES): Cc1nnc2sc(C(=O)NC3CN(c4ccccn4)C3)c(N)c2c1C [Compound 16d]

- hM4 pEC50 (±SEM) (hM4): 7.48±0.17
Structure (SMILES): Cc1nnc2sc(C(=O)NC3CN(c4ccncn4)C3)c(N)c2c1C [Compound 16h]

- predicted CLhep [1]: 1.08 L/h/kg
- predicted CLhep [2]: 0.336 L/h/kg
Structure (SMILES): Cc1nnc2sc(C(=O)NC3CN(c4ccc(C(F)(F)F)nc4)C3)c(N)c2c1C [Compound 16j]

- hM4 pEC50 (±SEM) (hM4): 7.74±0.22
- human P-gp efflux substrate (human P-gp): substrates for human P-gp efflux
Structure (SMILES): Cc1nnc2sc(C(=O)NC3CN(c4cccnc4F)C3)c(N)c2c1C [Compound 16i]

- hM4 pEC50 (±SEM) (hM4): 6.80±0.19
Structure (SMILES): Cc1nnc2sc(C(=O)NC3CN(c4ccnc(Cl)c4)C3)c(N)c2c1C [Compound 16n]
